The values below come from patent publication US9233143B2, “Medicinal agent for preventing exacerbation of malignant tumor, comprising combination of natriuretic peptide receptor GC-A and GC-B agonists” (National Cerebral and Cardiovascular Center, priority 2011, dated 2016).

Assay [1] has as its system tumor cells. The note with it: reports by Vesely et al.; cited from earlier work.
Assay [2] deals with cancer-associated fibroblasts (CAFs). Kind of assay: Changes in the intracellular cGMP level in response to natriuretic peptide stimulus, CAFs. It is filed as cell-based, human. The note with it: 1×10^−11 M to 1×10^−6 M, 10 minutes, FIG. 1B. How it is done: For obtaining CAFs (cancer-associated fibroblasts), tissue harvested from a patient having lung cancer surgery was subjected to primary culture after the consent of the patient was obtained. The cells were then cultured in DMEM culture medium containing 10% FCS under 5% CO2 at 37° C., and the cells of the 5th and earlier passages were used.
(§1) The A549 cells were cultured in a 24-well dish at 4×10^4 cells/well, and the culture medium was replaced with DMEM culture medium free from FCS the next day. The CAFs were cultured in a 24-well dish at 1×10^4 cells/well, and the culture medium was replaced with DMEM culture medium containing 1% FCS the next day.
(§2) To these culture media, solutions of hANP, hBNP, and hCNP-22 (final concentration: ten-fold serial dilution from 1×10^−11 M to 1×10^−6 M, the same amount of physiological saline was used as a control) were separately added. After 10 minutes had passed, 400 μL of cooled 70% ethanol (containing 0.1 N hydrochloric acid) was added, and ultrasonication was performed for a short time. The treated solution was lyophilized, and the cGMP level was measured using Cyclic GMP Assay kit (made by Yamasa Corp.).

The test system of assay [3] is A549 cells co-cultured with CAFs. As to the kind of experiment: Co-culture system of cancer cells and CAFs (mRNA of the A549 cells). It is filed as cell-based, human. Conditions: each test substance 1 μM. How it is done: In a 6-well dish, the A549 cells were cultured at 1×10^5 cells/well. The culture medium was replaced with DMEM culture medium free from FBS the next day, and the cells were further cultured for 24 hours. In a 6-well dish having a cell culture insert (1.0 μm pore size, made by BD), the CAFs were cultured at 5×10^4 cells/well. The culture medium was replaced with DMEM culture medium containing 1% FBS the next day, and the cells were further cultured for 24 hours. To each culture medium of the two kinds of cells, test substances were separately added to prepare test substance addition groups. Control groups with no test substance were also prepared. After two hours of culture, these were subjected to co-culture. The test substance addition groups were ANP groups containing hANP at a final concentration of 1 μM, CNP groups containing hCNP-22 at a final concentration of 1 μM, and ANP+CNP groups containing both hANP and hCNP-22 each at a final concentration of 1 μM. Each of the groups were prepared by adding the test substance to each culture medium of the two kinds of cells.
On the 6-well dish of A549 cells treated as above, the above cell culture insert with the CAFs was placed to prepare a co-culture experimental model where only the culture media could pass through the cell culture insert. After 24, 48, and 72 hours of culture, total RNA of the A549 cells only was recovered, cDNA was synthesized, and the mRNA levels of E-cadherin, N-cadherin, VEGF-A, PDGF-B, and IL-6 were measured by quantitative RT-PCR (FIGS. 6 to 8). The experiment using ANP alone (ANP groups: FIG. 6), the experiment using CNP alone (CNP groups: FIG. 7), and the experiment using ANP and CNP in combination (ANP+CNP group: FIG. 8) were independently conducted, where control groups were separately set for each experiment.

In assay [4] the test system is A549 cells. As to the kind of experiment: Changes in the intracellular cGMP level in response to natriuretic peptide stimulus, A549 cells. It is filed as cell-based, human. Conditions: 1×10^−11 M to 1×10^−6 M, 10 minutes, FIG. 1A. As to the method:
Lung adenocarcinoma cell line, A549 cells, was obtained from ATCC (Manassas, Va.). The cells were cultured in DMEM culture medium (Invitrogen, Carlsbad, Va.) containing 10% FCS under 5% CO2 at 37° C. The amounts of the culture medium were 1.5 mL for each well of a 6-well dish, 400 μL for each well of a 24-well dish, and 150 μL for each well of a 96-well dish. In the Examples below, unless otherwise stated, the same culture medium and culture conditions were adopted.
as §1, §2

Assay [5] deals with A549 cells. Kind of assay: EMT induced by TGF-β1 in A549 cells (morphology, quantitative RT-PCR). It is filed as cell-based, human. How it is done: Using a 6-well dish, the A549 cells were cultured at 1×10^5 cells/well, and the culture medium was replaced with DMEM culture medium free from FBS the next day. After 24 hours of culture, the cells were used in the following experiment.
An ANP group (a hANP solution was added (final concentration: 1 μM)) and a control group (the same amount of physiological saline was added) were prepared, and after 2 hours from the addition (of the hANP solution or the physiological saline) to the A549 cells, TGF-β1 was added so that the final concentration would be 0.125, 0.25, 0.5, 1.0, and 2.0 ng/mL. After 24 hours had passed, the morphological change in the cells was observed under a microscope and photographed (FIG. 2).
Then, total RNA was recovered from the above prepared ANP group and control group using TRIZOL total RNA isolation reagent (made by Invitrogen), cDNA was synthesized using reverse transcriptase, and the mRNA levels of E-cadherin, N-cadherin, VEGF-A, PDGF-B, TNF-α, and IL-6 were measured by quantitative RT-PCR. The mRNA level of each intended gene was calculated as the relative ratio of the mRNA amount of the gene to that of the housekeeping gene 36B4 measured at the same time. In the Examples below, unless otherwise stated, the mRNA levels were obtained through the same calculation.
It is known that in EMT, the expression of E-cadherin decreases while the expression of N-cadherin increases. The expression ratio of the two kinds of cadherin (N-cad/E-cad) is considered to be useful as an indicator of the degree of EMT.

Where [6] appears, read: A549 cells, test substance 1 μM, mRNA level, FIG. 3.

In the case of `CC[C@H](C)[C@@H]1NC(=O)[C@H](CCCNC(=N)N)NC(=O)[C@H](CC(=O)O)NC(=O)[C@H](CCSC)NC(=O)[C@H](CCCNC(=N)N)NC(=O)CNC(=O)CNC(=O)[C@H](Cc2ccccc2)NC(=O)[C@@H](NC(=O)[C@H](CO)NC(=O)[C@H](CO)NC(=O)[C@H](CCCNC(=N)N)NC(=O)[C@H](CCCNC(=N)N)NC(=O)[C@H](CC(C)C)NC(=O)[C@@H](N)CO)CSSC[C@@H](C(=O)N[C@@H](CC(N)=O)C(=O)N[C@@H](CO)C(=O)N[C@@H](Cc2ccccc2)C(=O)N[C@@H](CCCNC(=N)N)C(=O)N[C@@H](Cc2ccc(O)cc2)C(=O)O)NC(=O)CNC(=O)[C@H](CC(C)C)NC(=O)CNC(=O)[C@H](CO)NC(=O)[C@H](CCC(N)=O)NC(=O)[C@H](C)NC(=O)CNC1=O` [hANP], the “growth-suppressing activity on tumor (cancer) cells” value in assay [1] is given as “growth-suppressing effect”. Also, in assay [2], the “cGMP level of the CAFs” value is recorded as “did not show such an action”. Also, the “gene expression of the growth factors (VEGF-A, PDGF-B) and inflammatory cytokine (IL-6) increased in the co-culture” value in assay [3] (A549 cells co-cultured with CAFs 24, 48, 72 hours, FIGS. 6 to 8) was “could not suppress”. In addition, the “expression ratio of N-cadherin/E-cadherin (N-cad/E-cad), indicator of EMT, in the co-culture” value in assay [3] (A549 cells co-cultured with CAFs, FIGS. 6D, 7D, 8D) is “did not show any effect”. For the same molecule, in assay [4], the “intracellular cGMP level of the A549 cells” value is listed as “increased the intracellular cGMP level of the A549 cells in a concentration-dependent manner”. The “expression ratio of N-cad/E-cad (indicator of EMT)” value in assay [5] (A549 cells, 1 μM hANP, TGF-β1 stimulus, FIG. 4) was “significantly decreased”. The “morphological change in the cells associated with EMT induced by the TGF-β1 stimulus” value in assay [5] (A549 cells, test substance 1 μM, 24 hours after TGF-β1, FIG. 2) was “significantly suppressed”. The “gene expression of the growth factors (VEGF-A, PDGF-B) and the inflammatory cytokines (TNF-α, IL-6) increased by EMT induced by the TGF-β1 stimulus” value in assay [5] (A549 cells, test substance 1 μM, TGF-β1 0.125-2.0 ng/mL, 24 hours, mRNA level, FIG. 3) is reported as “significantly suppressed”. In assay [5] (setting [6]), the “decrease in the expression of E-cadherin induced by the TGF-β1 stimulus” value is “inhibited decrease” and the “increase in the expression of N-cadherin induced by the TGF-β1 stimulus” value is on record as “significantly suppressed increase”. The “effect of suppressing EMT” value in assay [5] (concentration of 1 μM, summary of Example 2) is on record as “significantly suppressing EMT”.
